Several values for one entry are separate records, joined by “and”; a condition that tells them apart may be missing. Identical values can stand only once.
Key:
[1] = test system: SARS-CoV-2 Washington strain 1 (USA_WA1/2020); format: cell-based
HCoV-229E = assay: Viral CPE assay in MRC-5 cells (CellTiter Glo); format: cell-based

COc1cccc2[nH]c(C(=O)N[C@@H](CC(C)C)C(=O)N[C@@H](C[C@@H]3CCNC3=O)C(=O)CO)cc12 [PF-00835231-00]
% Well Effect [1]: 0.795%
% Well Effect (HCoV-229E; 0.000938825 uM, minus efflux inhibitor, EC50 run 17-Apr-2020): -3.33% and -1.20%
% Well Effect (HCoV-229E; 0.000938825 uM, minus efflux inhibitor, EC50 run 24-Apr-2020): 15.19% and 11.15%
% Well Effect (HCoV-229E; 0.000949267 uM, minus efflux inhibitor, EC50 run 11-Apr-2020): 5.04% and 4.22% and -1.30% and -1.77%
% Well Effect (HCoV-229E; 0.00297326 uM, minus efflux inhibitor, EC50 run 17-Apr-2020): -5.19% and 4.25%
% Well Effect (HCoV-229E; 0.00297326 uM, minus efflux inhibitor, EC50 run 24-Apr-2020): 5.52% and -0.60%
% Well Effect (HCoV-229E; 0.00300158 uM, minus efflux inhibitor, EC50 run 11-Apr-2020): 4.34% and 3.84% and 1.15% and -4.56%
% Well Effect (HCoV-229E; 0.007813 uM, minus efflux inhibitor, EC50 run 30-Apr-2020): 0.98% and 0.83%
% Well Effect (HCoV-229E; 0.00941631 uM, minus efflux inhibitor, EC50 run 17-Apr-2020): 1.75% and 4.31%
% Well Effect (HCoV-229E; 0.0298215 uM, minus efflux inhibitor, EC50 run 17-Apr-2020): 23.90% and 29.75%
% Well Effect (HCoV-229E; 0.0298215 uM, minus efflux inhibitor, EC50 run 24-Apr-2020): -2.80% and 5.98%
% Well Effect (HCoV-229E; 0.0300105 uM, minus efflux inhibitor, EC50 run 11-Apr-2020): 22.27% and 25.51% and 18.77% and 17.89%
% Well Effect (HCoV-229E; 0.03125 uM, minus efflux inhibitor, EC50 run 30-Apr-2020): 10.60% and 5.67%
% Well Effect (HCoV-229E; 0.0625 uM, minus efflux inhibitor, EC50 run 30-Apr-2020): 34.90% and 38.53%
% Well Effect (HCoV-229E; 0.0944446 uM, minus efflux inhibitor, EC50 run 17-Apr-2020): 86.84% and 95.70%
% Well Effect (HCoV-229E; 0.0944446 uM, minus efflux inhibitor, EC50 run 24-Apr-2020): 19.60% and 23.25%
% Well Effect (HCoV-229E; 0.0948933 uM, minus efflux inhibitor, EC50 run 11-Apr-2020): 74.74% and 86.04% and 87.19% and 85.97%
% Well Effect (HCoV-229E; 0.09491 uM, minus efflux inhibitor, EC50 run 3-Apr-2020): 60.58% and 66.48% and 51.57% and 67.27%
% Well Effect (HCoV-229E; 0.299106 uM, minus efflux inhibitor, EC50 run 17-Apr-2020): 107.11% and 115.95%
% Well Effect (HCoV-229E; 0.299106 uM, minus efflux inhibitor, EC50 run 24-Apr-2020): 59.17% and 71.11%
% Well Effect (HCoV-229E; 0.300053 uM, minus efflux inhibitor, EC50 run 11-Apr-2020): 109.88% and 116.26% and 114.19% and 115.61%
% Well Effect (HCoV-229E; 0.300105 uM, minus efflux inhibitor, EC50 run 3-Apr-2020): 99.66% and 103.56% and 105.08% and 101.55%
% Well Effect (HCoV-229E; 0.5 uM, minus efflux inhibitor, EC50 run 30-Apr-2020): 102.45% and 101.06%
% Well Effect (HCoV-229E; 0.947269 uM, minus efflux inhibitor, EC50 run 17-Apr-2020): 102.69% and 111.34%
% Well Effect (HCoV-229E; 0.947269 uM, minus efflux inhibitor, EC50 run 24-Apr-2020): 73.36% and 89.87%
% Well Effect (HCoV-229E; 0.948767 uM, minus efflux inhibitor, EC50 run 11-Apr-2020): 109.36% and 109.78% and 108.04% and 112.87%
% Well Effect (HCoV-229E; 0.948933 uM, minus efflux inhibitor, EC50 run 3-Apr-2020): 100.40% and 104.08% and 100.39% and 101.88%
% Well Effect (HCoV-229E; 1 uM, minus efflux inhibitor, EC50 run 30-Apr-2020): 105.73% and 102.25%
% Well Effect (HCoV-229E; 3 uM, minus efflux inhibitor, EC50 run 11-Apr-2020): 107.90% and 109.07% and 108.64% and 109.54%
% Well Effect (HCoV-229E; 3 uM, minus efflux inhibitor, EC50 run 17-Apr-2020): 101.53% and 109.98%
% Well Effect (HCoV-229E; 3 uM, minus efflux inhibitor, EC50 run 24-Apr-2020): 75.89% and 83.80%
% Well Effect (HCoV-229E; 3 uM, plus 0.5 uM efflux inhibitor, EC50 run 22-may-2020): 87.68%
% Well Effect (HCoV-229E; 3 uM, plus 0.5 uM efflux inhibitor, EC50 run 24-Apr-2020): 59.97%
% Well Effect (HCoV-229E; 3.00053 uM, minus efflux inhibitor, EC50 run 3-Apr-2020): 99.82% and 106.83% and 102.14% and 104.18%
% Well Effect (HCoV-229E; 9.48767 uM, minus efflux inhibitor, EC50 run 3-Apr-2020): 101.96% and 104.70% and 102.25% and 105.36%
% Well Effect (HCoV-229E; 30 uM, minus efflux inhibitor, EC50 run 3-Apr-2020): 102.99% and 107.66% and 105.96% and 105.84%

— publication PMC8523698, “Preclinical characterization of an intravenous coronavirus 3CL protease inhibitor for the potential treatment of COVID19” (Nature Communications, 2021)
